Molecules are shown by their SMILES.

For orientation: IC50 means the point on the concentration scale where inhibition reaches its midpoint.

In the assay the target is T1, HIV integrase (Human immunodeficiency virus type 1 group M subtype B, UniProt P12497, F1332H).
T1 construct: HIV integrase full length gene; made in house; host or cells: Escherichia coli BL21(DE3)
Put plainly: Determination of enzyme (HIV integrase) inhibitory activity. The assay is classed as biochemical, HIV (Human Immunodeficiency Virus (type 1)). The following applies: recombinant integrase protein (F185H), strand transfer plate assay, absorbance at 450 nm. An excerpt:
The following explains evaluation methods of the HIV integrase inhibitory activity of the compound of the present invention.
(i) Construction of Recombinant Integrase Gene Expression System
HIV integrase full length gene (J. Virol., 67, 425-437 (1993)) in which phenylalanine at codon 185 was substituted by histidine, was inserted between the restriction enzyme NdeI and XhoI sites of plasmid pET21a(+) (Novagen), whereby an integrase expression vector pET21a-IN-F185H was constructed.
(ii) Production and Purification of Integrase Protein
Escherichia coli recombinant BL21(DE3) transformed with plasmid pET21a-IN-F185H obtained in (i) was shake cultured at 30° C. in a liquid medium containing ampicillin. When the culture reached the logarithmic growth phase, isopropyl-β-D-thiogalactopyranoside was added to promote expression of integrase gene. The culture was continued for 3 hr to promote accumulation of the integrase protein. The recombinant E. coli was collected in pellets by centrifugal separation and preserved at −80° C.
The E. coli was suspended in Lysis buffer ([…] HEPES (pH 7.5), 5 mM DTT, 10 mM CHAPS, 10% glycerol) containing 1M sodium chloride and subjected to repeat pressurization and depressurization for rupture, and centrifugal separation at 4° C., 40,000×g, 60 min to recover a water-soluble fraction (supernatant). This was diluted 10-fold with Lysis buffer free of sodium chloride, mixed with SP-Sepharose (GE healthcare Bioscience) and stirred at 4° C. for 60 min to allow adsorption of integrase protein to the resin. The resin was washed with Lysis buffer containing 100 mM sodium chloride and the integrase protein was eluted with Lysis buffer containing 1M sodium chloride.
The eluted integrase protein solution was subjected to a Superdex 75 (GE healthcare Bioscience) column for gel filtration. The protein was eluted with Lysis buffer containing 1M sodium chloride.
The obtained fractions of the integrase protein were collected and preserved at −80° C.
(iii) Preparation of DNA Solution
The following DNA synthesized by Greiner or FASMAC was dissolved in TE buffer (10 mM Tris-hydrochloric acid (pH 8.0), 1 mM EDTA) and mixed with donor DNA, target DNA, and each complementary strand (+ and − strands) to 1 μM. The mixture was heated at 95° C. for 5 min, 80° C. for 10 min, 70° C. for 10 min, 60° C. for 10 min, 50° C. for 10 min and 40° C. for 10 min and kept at 25° C. to give a double stranded DNA, which was used for the test.
(iv) Determination of Enzyme (HIV Integrase) Inhibitory Activity
The donor DNA was diluted with TE buffer to 10 nM (or 5 nM), of which 50 μl was added to each well of streptavidin-coated microtiter plate (Roche) and allowed to adsorb at 37° C. for 60 min. The plate was washed with phosphate buffer (Dulbecco's PBS, Sanko Junyaku Co., Ltd.) containing 0.1% Tween 20 and phosphate buffer. Then, an enzyme reaction mixture (70 μl), a test substance (10 μl) diluted with the enzyme reaction mixture and 100 μg/ml (or 64 μg/ml (2 μM)) integrase protein (10 μl) were added to each well and reacted at 37° C. for 60 min.
Composition of the enzyme reaction mixture: 30 mM MOPS (3-morpholinopropanesulfonic acid), 5 mM magnesium chloride, 3 mM DTT (dithiothreitol), 0.1 mg/ml BSA (bovine serum albumin), 5% glycerol, 10% DMSO (dimethyl sulfoxide), 0.01% Tween 20.
Then, 50 nM (or 25 nM) target DNA (10 μl) was added, reacted at 37° C. for 10 min and washed with phosphate buffer containing 0.1% Tween 20 to stop the reaction.
Then, 100 mU/ml peroxidase labeled anti-digoxigenin antibody solution (Roche, 100 μl) was added, and the mixture was reacted at 37° C. for 60 min, followed by washing with phosphate buffer containing 0.1% Tween 20.
A peroxidase color solution (Bio Rad, 100 μl) was added and allowed to react at room temperature for 4 min (or 3 min). The color reaction was stopped by adding IN sulfuric acid (100 μl). The absorbance at 450 nm was measured. […]
In the case of `CCOC[C@@H](CO)n1cc(C(=O)O)c(=O)c2cc(Cc3cc(N4CCOCC4)cc(Cl)c3F)c(CC)cc21` [Example 1, 6-[3-chloro-2-fluoro-5-(morpholin-4-yl)benzyl]-1-((R)-1-ethoxymethyl-2-hydroxyethyl)-7-ethyl-4-oxo-1,4-dihydroquinoline-3-carboxylic acid], the IC50 was under 0.01 µM.

Consider `COc1cc2c(cc1Cc1cc(N3CC[C@H](O)C3)cc(Cl)c1F)c(=O)c(C(=O)O)cn2[C@H](CO)C(C)C` [Example 9, 6-[3-chloro-2-fluoro-5-((S)-3-hydroxypyrrolidin-1-yl)benzyl]-1-((S)-1-hydroxymethyl-2-methylpropyl)-7-methoxy-4-oxo-1,4-dihydroquinoline-3-carboxylic acid], for which the IC50 was under 0.01 µM.

As for `COc1cc2c(cc1Cc1cc(N3CCOCC3)cc(Cl)c1F)c(=O)c(C(=O)O)cn2[C@H](CO)C(C)(C)C` [Example 17, 6-[3-chloro-2-fluoro-5-(morpholin-4-yl)benzyl]-1-((S)-1-hydroxymethyl-2,2-dimethylpropyl)-7-methoxy-4-oxo-1,4-dihydroquinoline-3-carboxylic acid], the IC50 was under 0.01 µM.

Regarding `CCc1cc2c(cc1Cc1cc(N3CCOCC3)cc(Cl)c1F)c(=O)c(C(=O)O)cn2[C@H](CO)CCOC` [Example 44, 6-[3-chloro-2-fluoro-5-(morpholin-4-yl)benzyl]-7-ethyl-1-((S)-1-hydroxymethyl-3-methoxypropyl)-4-oxo-1,4-dihydroquinoline-3-carboxylic acid], the half-inhibitory concentration (IC50) is 0.01 to 0.1 µM.

For `CCc1cc2c(cc1Cc1cc(N3CCCC3=O)cc(Cl)c1F)c(=O)c(C(=O)O)cn2[C@H](CO)C(C)C` [Example 24, 6-[3-chloro-2-fluoro-5-(2-oxopyrrolidin-1-yl)benzyl]-7-ethyl-1-((S)-1-hydroxymethyl-2-methylpropyl)-4-oxo-1,4-dihydroquinoline-3-carboxylic acid], the IC50 lay within 0.01 to 0.1 µM.

As to `COc1cc2c(cc1Cc1cc(N3CCOCC3)c(F)c(Cl)c1F)c(=O)c(C(=O)O)cn2[C@H](CO)C(C)C` [Example 16, 6-[3-chloro-2,4-difluoro-5-(morpholin-4-yl)benzyl]-1-((S)-1-hydroxymethyl-2-methylpropyl)-7-methoxy-4-oxo-1,4-dihydroquinoline-3-carboxylic acid], the IC50 was under 0.01 µM.

As for `CCc1cc2c(cc1Cc1cc(N3CCCC3=O)c(F)c(Cl)c1F)c(=O)c(C(=O)O)cn2[C@H](CO)C(C)C` [Example 26, 6-[3-chloro-2,4-difluoro-5-(2-oxopyrrolidin-1-yl)benzyl]-7-ethyl-1-((S)-1-hydroxymethyl-2-methylpropyl)-4-oxo-1,4-dihydroquinoline-3-carboxylic acid], the IC50 was under 0.01 µM.

For the compound `CC(C)(C)[C@@H](CO)n1cc(C(=O)O)c(=O)c2cc(Cc3cc(N4CCCC4=O)cc(Cl)c3F)ccc21` [Example 51, 6-[3-chloro-2-fluoro-5-(2-oxopyrrolidin-1-yl)benzyl]-1-((S)-1-hydroxymethyl-2,2-dimethylpropyl)-4-oxo-1,4-dihydroquinoline-3-carboxylic acid], the IC50 is under 0.01 µM.

`CCc1cc2c(cc1Cc1cc(N3CCOCC3)cc(Cl)c1F)c(=O)c(C(=O)O)cn2[C@H](CO)C(C)C` [Example 23, 6-[3-chloro-2-fluoro-5-(morpholin-4-yl)benzyl]-7-ethyl-1-((S)-1-hydroxymethyl-2-methylpropyl)-4-oxo-1,4-dihydroquinoline-3-carboxylic acid]: the IC50 is under 0.01 µM.

Consider `CCc1cc2c(cc1Cc1cc(N3CCOCC3)cc(Cl)c1F)c(=O)c(C(=O)O)cn2[C@H](CO)[C@H](C)OC` [Example 35, 6-[3-chloro-2-fluoro-5-(morpholin-4-yl)benzyl]-7-ethyl-1-((1R,2S)-1-hydroxymethyl-2-methoxypropyl)-4-oxo-1,4-dihydroquinoline-3-carboxylic acid], for which the 50% inhibitory concentration (IC50) lay within 0.01 to 0.1 µM.

For the origin of these results see patent US7872004B2, “6-(heterocyclyl-substituted benzyl)-4-oxoquinoline compound and use thereof as HIV integrase inhibitor” (Japan Tobacco Inc., priority 2006, dated 2011).
